Experimental data published in US20110053860A1, “COX-2 function and wound healing” (priority 2001, published 2011).

What was measured:
[1] = tested on: rat closed femur fracture model; assay: Radiographic analysis of femur fracture healing in NSAID treated rats; assay type: in vivo, male Sprague-Dawley rats; details: for average radiograph score (union 1 point, mal-union 0.5 points, non-union 0 points): 8-week post-fracture radiographs, 7 blinded observers, control rats 0.71
Description: (§1) A total of 253 male Sprague-Dawley rats (584.+−0.62 g) were fed a standard diet and kept caged separately in a constant temperature and humidity environment. All rats were 6-9 months old at the beginning of the experiment. Drugs were administered daily by gavage beginning two days prior to fracture. Animals were randomly selected for each treatment group.
(§2) The rats were anesthetized by intraperitoneal injection of ketamine (40 mg/kg) and xylazine (5 mg/kg). Under aseptic conditions, a medial parapatellar incision (0.4-0.5 cm) was made in the right hindlimb and the patella was dislocated laterally. The medullary canal was entered through the intercondylar notch and reamed with an 18-gauge needle. A 1.1 mm stainless steel pin (Small Parts Inc., Miami Lakes, Fla.) was then inserted into the canal and secured in the proximal part of the greater trochanter by tamping. The distal portion of the pin was then cut flush with the femoral condyles and the patella dislocation was reduced. The soft tissue and skin were closed with 4-0 vicryl sutures. After closing, the diaphysis of the pinned femur was fractured by means of a three-point bending device as described by Bonnarens and Einhorn (Bonnarens and Einhorn 1984).
Radiographs were made post-fracture to confirm the position and quality of each fracture and at sacrifice to determine the degree of healing. In addition several rats were selected randomly to produce serial radiographs (at least 2 rats per treatment group). Radiographs were made of these rats weekly under anesthesia until the experimental endpoint (8 weeks). Radiographs of mice were also made under anesthesia. All radiographs were made using a 43805N Faxitron (Hewlett-Packard, McMinnville, Oreg.) and Kodak MinR-2000 mammography film.
Radiographs were made immediately following fracture production and then every week till the end point of the experiments (8 weeks post-fracture).
In addition to the serial radiographs made for certain rats, all animals in this study were examined radiographically immediately post-fracture and when euthanized. A random, blinded sample of the 8-week post-fracture radiographs were independently examined by 7 observers and scored as a union (1 point), mal-union (0.5 points), or non-union (0 points).

[2] = male rats, single drug dose; cited from earlier work
[3] = tested on: rat closed femur fracture model; assay: Torsional mechanical testing of fractured femurs; assay type: in vivo, male Sprague-Dawley rats; details: for normalized shear stress / normalized torsional rigidity / normalized peak torque / normalized maximum shear stress: percentage of contralateral unfractured femur; for normalized shear stress: no drug 36; for Shear Modulus, mean / Peak Torque (Tmax), mean: fractured femur; for Peak Torque (Tmax), mean: not normalized; for Mal-Union (Stage III), frequency / Non-Union (Stage I/II), frequency / Union (Stage IV), frequency: mechanically tested fractured femurs at 8 weeks post-fracture; for normalized maximum shear stress: no drug 48; for effect on fracture healing at the dose and treatment regime used: daily gavage, indomethacin 1 mg/kg, celecoxib 4 mg/kg, rofecoxib 3 mg/kg
Description: as §1, with “group. […] No drug (control) rats were not initially gavaged but later rats were gavaged with water and no difference was noted between the no drug rats that had been gavaged and those that had not. No statistically significant differences were found in animal weight changes during the experiments.” for “group.”
as §2
Animals within each treatment group were sacrificed at 4, 6, and 8 weeks post-fracture by CO2 asphyxiation. Animals with oblique, comminuted, or infected fractures were not used for mechanical testing. Both femora were removed and cleaned of all soft tissue leaving the fracture callus undisturbed and then immediately processed for mechanical testing. The samples were wrapped in saline soaked gauze to prevent dehydration between steps. Measurements of the femora were taken using digital calipers to determine femur length and external callus dimensions. The intramedullary pin was removed from the fractured femur and a 1 mm-diameter stainless steel pin (˜0.8 cm length) was inserted at the proximal and distal end perpendicular to the long axis of the bone to prevent slipping in the potting material. The intact femur was also pinned as described above. The femoral ends were potted in 1-inch hexnuts using a low melt temperature metal (Wood's metal, Alfa Aesar, Ward Mill, Mass.). Once potted, the gage length (L) of each femur was measured. Torsional testing was conducted using a servohydraulic testing machine (MTS, Eden, Praire, Minn.) with a 20 Nm reaction torque cell (Interface, Scottsdale, Ariz.). The testing was carried out to failure at a rate of 2°/sec and a data recording rate of 20 Hz. Both the fractured and intact femora were tested in internal rotation in proper anatomic orientation. The peak torque and angle at failure were calculated from the load-deformation curves. Internal fracture callus dimensions were measured after mechanical testing. From the callus dimensions, the polar moment of inertia (J) was calculated based upon a hollow ellipse model (Bell et al. 1941; Engesaeter et al. 1978). The equations used to derive torsional rigidity, shear stress, shear modulus, and J were as follows (Popov 1968): (1) Torsional Rigidity: (Tmax·L)/φ where Tmax is the peak torque value in Nmm, L is the gage length in mm, and φ is the angle at failure in radians. (2) Shear Stress: (Tmax·Rmax)/J where Rmax is the largest radial dimension of the fracture callus in mm (ao) and J is the polar moment of inertia. […]

[4] = tested on: rat closed femur fracture model; assay: Histology of fracture callus; assay type: in vivo, male Sprague-Dawley rats; details: for histology of the healing femur fractures compared to untreated control rat: 2 weeks post-fracture; for cartilage in the fracture callus: 3 and 4 weeks post-fracture; for healing of fractured femurs by histology: 6 and 8 weeks post-fracture
Description: as §1, with “group. […] No drug (control) rats were not initially gavaged but later rats were gavaged with water and no difference was noted between the no drug rats that had been gavaged and those that had not. No statistically significant differences were found in animal weight changes during the experiments.” for “group.”
as §2
Rats were sacrificed at 2, 3, 4, 6, and 8 weeks post-fracture by CO2 asphyxiation. Both femora were resected and the stainless steel pin was removed from the medullary canal. The harvested femora were fixed in 10% buffered formalin and embedded in polymethylmethacrylate following standard histological techniques for calcified tissue. The samples were sectioned sagitally through the fracture callus using an Isomet diamond saw (Buehler Ltd., Lake Bluff, Ill.), mounted on plexiglass slides, and polished to a thickness of 100 μ.m. The slides were then stained with van Gieson's picrofuchsin and Stevenel's blue in order to identify new bone growth and cartilage formation (Maniatopoulos et al. 1986). Mice femora were fixed, decalcified, paraffin embedded, sectioned, and stained with Masson's trichrome stain. The samples were viewed and photomicrographs were taken using an Olympus BH2-RFCA microscope or an Olympus SZ40 microscope.

[5] = humans, depending upon drug dose; cited from earlier work
[6] = tested on: rat closed femur fracture model; details: in vivo
From the text: Experimental treatment group values were compared to the no drug values using a χ^2 analysis. Significant differences are noted with an asterisk (P<0.01).
Pin slippage is dislodgement of the intramedullary stainless steel rod used to stabilize the fracture and permit the rat to weight-bear on the fractured femur. Once fracture stability was lost, the rat was euthanized since the rat could no longer weight-bear on the femur and since the callus would be re-injured and thus alter healing. […] Animals with these complications were excluded.

COX-2 = COX-2 (Homo sapiens, UniProt P35354); details: cited from earlier work
[7] = 6 weeks post-fracture, no drug 89
[8] = 8 weeks post-fracture, no drug 88
[9] = 8 weeks post-fracture, no drug 101

COX-2, sequence (P35354 18-604): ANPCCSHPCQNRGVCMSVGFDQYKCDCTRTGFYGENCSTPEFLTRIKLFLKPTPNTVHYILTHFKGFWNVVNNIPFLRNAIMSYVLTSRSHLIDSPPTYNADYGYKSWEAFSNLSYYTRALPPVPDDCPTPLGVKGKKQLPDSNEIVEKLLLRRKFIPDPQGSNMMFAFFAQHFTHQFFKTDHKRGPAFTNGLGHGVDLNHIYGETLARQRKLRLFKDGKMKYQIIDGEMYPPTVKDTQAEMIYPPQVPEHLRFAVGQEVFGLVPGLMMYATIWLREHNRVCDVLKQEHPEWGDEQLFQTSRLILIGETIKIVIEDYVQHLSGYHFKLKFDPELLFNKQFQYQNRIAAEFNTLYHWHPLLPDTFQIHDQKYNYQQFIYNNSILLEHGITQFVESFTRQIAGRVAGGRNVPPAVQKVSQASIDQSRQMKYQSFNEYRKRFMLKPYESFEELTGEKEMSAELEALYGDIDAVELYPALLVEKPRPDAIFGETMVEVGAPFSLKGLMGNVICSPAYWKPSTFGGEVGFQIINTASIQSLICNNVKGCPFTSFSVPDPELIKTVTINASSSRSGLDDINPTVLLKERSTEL

| Compound | average radiograph score (union 1 point, mal-union 0.5 points, non-union 0 points) [1] | estimated plasma half-life [2] | normalized shear stress ([3]; 6 weeks post-fracture) | normalized torsional rigidity [3, 7] | Shear Modulus, mean ([3]; 4 wks) | Peak Torque (Tmax), mean ([3]; 4 wks) | Shear Modulus, mean ([3]; 6 wks) | Peak Torque (Tmax), mean ([3]; 6 wks) | Shear Modulus, mean ([3]; 8 wks) | Peak Torque (Tmax), mean ([3]; 8 wks) | Mal-Union (Stage III), frequency [3] | Non-Union (Stage I/II), frequency [3] | Union (Stage IV), frequency [3] | histology of the healing femur fractures compared to untreated control rat [4] | cartilage in the fracture callus [4] | healing of fractured femurs by histology [4] | normalized maximum shear stress ([3]; 8 weeks post-fracture) | normalized torsional rigidity [3, 8] | normalized peak torque [3, 9] | effect on fracture healing at the dose and treatment regime used [3] | also measured |
| --- | --- | --- | --- | --- | --- | --- | --- | --- | --- | --- | --- | --- | --- | --- | --- | --- | --- | --- | --- | --- | --- |
| Cc1ccc(-c2cc(C(F)(F)F)nn2-c2ccc(S(N)(=O)=O)cc2)cc1 [Celecoxib, celecoxib] | 0.49 | approximately 4 hours | 22% | 50% | 0.3 GPa | 302 Nmm | 0.9 GPa | 567 Nmm | 1.7 GPa | 620 Nmm | 3 | 3 | 0 | – | – | – | – | – | – | – | rats tested whose fractured femurs healed as mal-unions rather than non-unions ([3]; rat, in vivo): approximately 50% |
| COc1ccc2c(c1)c(CC(=O)O)c(C)n2C(=O)c1ccc(Cl)cc1 [Indomethacin, indomethacin] | 0.54 | – | 15% | 34% | 0.3 GPa | 417 Nmm | 0.4 GPa | 357 Nmm | 1.8 GPa | 469 Nmm | 1 | 1 | 6 | gross abnormalities | presence of cartilage | appeared to be healing | not significantly different | not significantly different | not significantly different | delays, but does not prevent fracture healing | bridging of the fracture gap (time post fracture) ([1]; radiography, untreated rats approximately 4-5 weeks): 5-6 weeks; normalized peak torque ([3]; 6 weeks post-fracture, no drug 77): 46% |
| CS(=O)(=O)c1ccc(C2=C(c3ccccc3)C(=O)OC2)cc1 [Rofecoxib, rofecoxib] | 0.32 | ~5 h | – | – | 0.2 GPa | 250 Nmm | 0.3 GPa | 383 Nmm | 0.5 GPa | 338 Nmm | 1 | 4 | 0 | gross abnormalities | little or no cartilage was evident | no further healing was evident | 18% | 31% | 50% | stops fracture healing | formation of an X-ray dense hard callus ([1]; 2 and 4 week post-fracture radiographs): did not prevent; original fracture on radiograph ([1]; after 8 weeks): still plainly evident; plasma half-life [5]: 10 to 17 h; bone resorption at the distal ends of the fracture bones ([4]; rat, in vivo): massive bone resorption event; mechanical properties of the fractured femurs compared to no drug rats ([3]; rofecoxib: 8 weeks post-fracture, all values measured or derived): significantly less; infection rate as compared to the no drug rats [6]: statistically significant higher; pin slippage, rats having to be euthanized prior to the endpoint ([6]; male, Sprague-Dawley): ≤ 30%; selectivity for COX-2 relative to COX-1 (COX-2): ~35 fold |
